For this test, the target named is T1, DAN-eENTH: epsin 1 ENTH domain variant M10C/C96A/S4W, SEQ ID NO: 2, labeled with DAN at C10 (Homo sapiens, UniProt Q9Y6I3, C96A/M10C/S4W).
T1 construct: The Epsin1 ENTH domain (1-158 amino acids) was subcloned; GST (C, cleaved yes); made in house; host or cells: E. coli BL21 RIL codon plus
T1 sequence (Q9Y6I3 1-158 S4W/M10C/C96A): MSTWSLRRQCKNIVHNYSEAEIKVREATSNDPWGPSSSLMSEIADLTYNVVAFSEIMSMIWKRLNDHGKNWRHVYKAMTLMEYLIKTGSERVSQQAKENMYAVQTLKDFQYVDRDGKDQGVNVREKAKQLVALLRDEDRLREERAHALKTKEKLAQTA
The test can be described thus: Ratiometric (FB/FG) two-photon microscopy of DAN-eENTH binding to PtdIns(4,5)P2 in GUVs. Particulars: FB/FG versus [PtdIns(4,5)P2]; POPC/POPS/PtdIns(4,5)P2 (80-x:20:x) GUVs; 37° C.; read-out: Kd for PtdIns(4,5)P2 (FB/FG ratiometric analysis). The protocol: The background correction for FB/FG values was unnecessary because FB=0 in the absence of PtdIns(4,5)P2. […] The theoretic curve was then constructed using these parameters.
To calibrate the fluorescence microscope and the DAN-eENTH sensor for cellular PtdIns(4,5)P2 quantification, we then determined by photon counting F values in the blue channel (FB; observed with a 436±10 band pass filter) and the green channel (FG; observed with a 525±25 band pass filter) when DAN-eENTH was added to the solution of giant unilamellar vesicles (GUV) with the composition of POPC/POPS/PtdIns(4,5)P2 (80-x:20:x with x=0-3). […] The resulting FB versus the surface concentration of PtdIns(4,5)P2 ([PtdIns(4,5)P2]s; see Methods for calculation) (FIG. 2C) or (FB/FG) versus [PtdIns(4,5)P2]s (FIG. 2d) calibration curve was used for ensuing PtdIns(4,5)P2 quantification in GUV and in mammalian cells. With respect to FIG. 5, the bar indicates 10 μm and the radius of this GUV is measured as […]. […]
In vitro calibration of our DAN-eENTH sensor was performed using GUVs composed of POPC/POPS/PtdIns(4,5)P2 (80-x:20:x) (x=0-3 mol %). […] These GUV were mixed with DAN-eENTH in the concentration range of 0-500 nM and spatiotemporally resolved fluorescence measurements were carried out at 37° C. using the custom-built multi-photon, multi-channel microscope that was described previously 13. […]

As for `CCCCCCCCCCCCCCCC(=O)OC[C@H](COP(=O)(O)O[C@@H]1[C@H](O)[C@H](O)[C@@H](OP(=O)(O)O)[C@H](OP(=O)(O)O)[C@H]1O)OC(=O)CCCCCCCCCCCCCCC` [PtdIns(4,5)P2, phosphatidylinositol-4,5-bisphosphate], the Kd worked out at 44 ± 6 nM.

Values taken from US8686115B2, “Compositions and methods for quantitatively monitoring lipids” (The Board of Trustees of the University of Illinois, priority 2009, dated 2014).
